SMILES strings stand for the structures. Where two headings read alike, the source gives them in different places. Some results are limits rather than exact numbers.

The test system of series [1] is megakaryocytopoiesis. Particulars: cited from earlier work.
Series [2] has as its system human phosphodiesterase III (PDE III). The series is described as follows: PDE III inhibition. It counts as biochemical.
The conditions of series [3]: in vivo; cited from earlier work.
Series [4] is described as follows: human pharmacokinetics of anagrelide and its metabolite.
Series [5] has as its system megakaryocytopoiesis. In words: inhibition of TPO-induced megakaryocytopoiesis (differentiation of human CD34+ stem cells into megakaryocytes). It counts as cell-based. Conditions: read-out: anti-megakaryocytic IC50. The text has this:
Such activity may be assessed using a well established model. Assessment of the in vitro anti-megakaryocytic activity—and potentially therefore the platelet lowering capability—of the anagrelide prodrugs can be determined using the model of megakaryocytopoiesis (Cohen-Solal et al., Thromb. Haemost. 1997, 78:37-41 and Cramer et al., Blood, 1997, 89:2336-46). This involves examining the differentiation of human CD34^+ stem cells into megakaryocytes which ultimately give rise to blood platelets.

The next series in a line: in vivo. Conditions: dog. The method, then: The potential benefit of improved water solubility on the absorption of these open-ring analogues was shown in a comparative bioavailability study in the dog. Using the unsubstituted ethyl-5,6-dichloro-3,4-dihydro-2-(1H)-iminoquinazoline-3-acetate HBr as a model compound, a comparison was made of the systemic availability of anagrelide when given as this compound or as anagrelide itself in equimolar doses (7.7 & 6.1 mg/kg respectively).
The lesser variability was consistent with more efficient absorption. This study illustrated the potential benefits of the open-ring prodrugs to improve absorption.

A short description of another series: aqueous solubility. It counts as physicochemical.
For series [6], the system named is erythroid or myelomonocytic differentiation. Particulars: stimulated by erythropoietin or granulocyte-macrophage colony-stimulating factor; cited from earlier work.
The target in series [7] is human phosphodiesterase III (PDE III). Particulars: cited from earlier work.
Series [8] in a line: conversion of prodrug to anagrelide in human plasma (LC/MS-MS). Particulars: spiked 100 ng/mL, room temperature, first point of measurement (immediately after mixing). It counts as in vitro ADME. The method, then:
Such prodrugs are likely to be extremely rapidly and completely cyclised in plasma to the closed ring 3-alkylanagrelide analogues. […] Human plasma was spiked with anagrelide prodrug (final concentration 100 ng/mL). Immediately after mixing, and at 15, 30, 45 and 60 minutes afterward samples were analysed for anagrelide prodrug and anagrelide.

Turning to `O=C1NC2=Nc3ccc(Cl)c(Cl)c3CN2C1O` (stereo not drawn) [3-hydroxyanagrelide], in the series with megakaryocytopoiesis [1], the “potency in inhibition of megakaryocytopoiesis relative to parent drug” value was “no more potent than the parent drug”. Moreover, the “potency as PDE III inhibitor relative to anagrelide” value in [2] is reported as “over 40 fold”. In series [3], the typical half-life is 2.5 h. For the same compound, the “in vivo exposure relative to parent drug” value in series [4] was 2-3 fold.
A word on the IC50: it is the concentration at which inhibition is half-maximal. The term AUC denotes the area under the concentration-time curve, a measure of exposure. What is called Cmax is the maximum level reached in the sampled fluid or tissue. Usually solubility stands for the dissolved amount per volume that the medium holds. Regarding `O=C1CN2Cc3c(ccc(Cl)c3Cl)N=C2N1` [Anagrelide, 6,7-dichloro-1,5-dihydroimidazo[2,1-b]-quinazolin-2(3H)-one], the IC50 in the series on megakaryocytopoiesis [5] (Homo sapiens) is 27 nM; in the series with megakaryocytopoiesis [1] (estimated, background statement, read-out: IC50 inhibition of TPO-induced megakaryocytopoiesis) it was around 26 nM; in series [7], around 29 nM. In addition, in the series “in vivo” (male), the metabolite-to-drug exposure ratio worked out at 1.5. Also, in the series “in vivo” (male, AUC for anagrelide, range), the AUC was in the range of 21.6 to 188 ng·h/mL. This compound also registered a Cmax in the series “in vivo” (male, Cmax for anagrelide, range) of 9.5 to 44.3 ng/mL. Besides, in “aqueous solubility” (aqueous, pH 7, aqueous buffer, read-out: aqueous solubility), the solubility is below 10 µg/mL. Moreover, the “effect on erythroid or myelomonocytic differentiation” value in series [6] is reported as “does not affect”. Besides, the first pass effect in [3] is above 50%. In addition, the typical half-life in [3] is 1.5 h.
As for `Cc1[nH]c(=O)c(C#N)cc1-c1ccncc1` [milrinone], the IC50 in [7] was 170 to 350 nM.
With `Br.CCOC(=O)CN1Cc2c(ccc(Cl)c2Cl)NC1=N` [ethyl-5,6-dichloro-3,4-dihydro-2-(1H)-iminoquinazoline-3-acetate HBr], the metabolite-to-drug exposure ratio in “in vivo” is given as 0.9. In the series “in vivo” (6.1 mg/kg), the “fold higher Cmax for anagrelide than after anagrelide itself” value is on record as “approximately 17 fold” and the “mean fold higher AUC for anagrelide than after anagrelide itself” value was determined as 16 fold. The “prodrug remaining in human plasma” value in series [8] is reported as “no prodrug could be found”. Further, in “aqueous solubility” (distilled water), the solubility is around 5500 µg/mL.
For the compound `CC1(C)C(=O)NC2=Nc3ccc(Cl)c(Cl)c3CN21` [3,3-dimethyl anagrelide], in the series on megakaryocytopoiesis [5], the IC50 was around 160 nM.

Values taken from patent US20110065735A1, “SUBSTITUTED QUINAZOLINES” (Shire LLC, priority 2008, published 2011).
